Consider six compounds from patent publication US4339439A, “Pharmaceutical methods and compositions” (Bristol-Myers Company, priority 1981, dated 1982).

For one data set, the system named is stress ulceration. Conditions: two or more days of pretreatment; Strauss et al. 1977; cited from earlier work.
The next data set has as its system duodenal ulcer. Conditions: cited from earlier work.
For the next data set, the system named is gastric ulcer. Conditions: cited from earlier work.
A short description of data set [1]: Toxicity profile in pharmacological studies in animals. The class given is in vivo.
The test system of data set [2] is meal stimulated gastric acid secretion. Conditions: patients with inactive duodenal ulcers; Myers and Peterson 1980; cited from earlier work.
The test system of data set [3] is gastric acid secretion. As to the kind of experiment: Inhibitory effect on gastric acid secretion versus pepsin activity. Conditions: in vivo.
Data set [4] relates to gastric erosions produced in rats by the oral instillation of 1.0 ml of 0.75 N HCl. Kind of data set: HCl-induced gastric erosions in rats (modified method of Robert et al.). The class given is in vivo, rat (Long Evans). On the procedure:
In the tests described below, gastric erosions produced in rats by the oral instillation of 1.0 ml of 0.75 N HCl were compared with those in rats which had been pretreated with etintidine or with etintidine and pepstatin.
A modification of the method of Robert et al., [Gastroenterology, 77, 433-443 (1979)] was employed to produce gastric erosions. Adult male, Long Evans rats weighing 280-300 g (Blue Spruce Farms, Alton, New York) were used. The animals were individually caged and food and water were removed 24 and 18 hours, respectively, prior to testing. On the following day, etintidine was administered orally to the animals 30 minutes before 1.0 ml of 0.75 N HCl was instilled into the stomach by gavage. […]
The stomachs were removed from the animals, cut along the greater curvature, opened, rinsed with saline and pinned out flat in a standard position for macroscopic examination and scoring of erosions. The stomachs were photographed with a Polaroid® Close Up camera (Polaroid Corporation) and scoring was determined from the photographs. […]
Data were analyzed using the t-test for unpaired data and ED50 values were calculated from dose response data using probit analysis [Finney, Probit Analysis, 3rd ed., University Press, Cambridge, England (1971)]. […]

The next data set deals with histamine H2 -receptor (Homo sapiens, UniProt P25021). Conditions: Cavanagh et al. 1980; cited from earlier work.
In data set [5] the test system is stomach ulcers in the pylorus ligated (Shay) rat. Conditions: Umezawa et al. 1970; cited from earlier work.
For data set [6] the following is noted: daily oral doses of 700 mg for up to three months; Svendsen et al. 1976; cited from earlier work.
Data set [7] has as its system pepsin. Kind of data set: Pepsin activity in the 18 hour pylorus ligated rat. Conditions: 20 mg/kg po. Format: in vivo.
For data set [8], the system named is stomach ulcers in the pylorus ligated (Shay) rat. Kind of data set: Ulcer formation in the pylorus ligated (Shay) rat. Format: in vivo. Conditions: 18 hour pylorus ligated rat, 20 mg/kg po, previous studies in applicant's laboratories.
Data set [9] deals with pepsin. Conditions: cited from earlier work.
The conditions of data set [10]: all animal species studied; Svendsen et al. 1976; cited from earlier work.
Data set [11] deals with pepsin. Conditions: in the stomach; U.S. Pat. No. 4,101,650; cited from earlier work.
Data set [12] in a line: Absorption and fecal excretion after oral administration. The class given is in vivo, animals.
For data set [13], the system named is gastric acid secretion. Conditions: cited from earlier work.
Where [14] appears, read: British Medical Journal review 1980.
Where [15] appears, read: patients with ulcer dyspepsia, Svendsen et al. 1976.

“Also recorded” adds a separate entry of the source. Like-named read-outs stand apart in the source and are kept apart here. Non-standard residues stand in square brackets, D forms with d. Residues, ends and D or L forms follow the SMILES beside them. *: point of attachment. Sta = CC(C)C[C@H](N)[C@@H](O)CC(=O)O; Isovaleryl = CC(C)CC(=O)*

Sequence of histamine H2 -receptor (P25021 whole entry, species assumed): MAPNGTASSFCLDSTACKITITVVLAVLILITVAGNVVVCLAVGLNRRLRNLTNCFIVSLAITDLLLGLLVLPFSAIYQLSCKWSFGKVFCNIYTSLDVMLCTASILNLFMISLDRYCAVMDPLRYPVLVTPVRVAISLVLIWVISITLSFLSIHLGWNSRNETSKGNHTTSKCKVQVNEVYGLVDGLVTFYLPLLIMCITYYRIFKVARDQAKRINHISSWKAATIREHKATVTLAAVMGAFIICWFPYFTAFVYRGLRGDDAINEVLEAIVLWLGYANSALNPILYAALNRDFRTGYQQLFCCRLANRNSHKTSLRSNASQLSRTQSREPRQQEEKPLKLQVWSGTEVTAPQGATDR

On to `CC1(C)[C@@H](OC(=O)CCC(=O)O)CC[C@]2(C)[C@H]3C(=O)C=C4[C@@H]5C[C@@](C)(C(=O)O)CC[C@]5(C)CC[C@@]4(C)[C@]3(C)CC[C@@H]12` [carbenoxolone], for which, in the data set with stress ulceration, the ulcer formation entry is on record as “significantly decreased ulcer formation”.

On to Amylopectin, for which, in the data set on duodenal ulcer (setting [14]), the “benefit / healing in patients with duodenal ulcer” value is reported as “no significant benefit”.

Take sucralfate: in the data set with gastric ulcer (setting [14]), the “benefit in patients with gastric ulcer” value is listed as “none”.

As to `C#CCN/C(=N\C#N)NCCSCc1nc[nH]c1C` [etintidine], in data set [1], the toxicity result was “relatively nontoxic” and the “toxicity profile compared with cimetidine” value is “substantially the same as that of the commercial H2 -antagonist cimetidine”. Besides, the “meal stimulated gastric acid secretion” value in data set [2] is reported as “effectively antagonizes meal stimulated gastric acid secretion”. Moreover, the “inhibitory effect on gastric acid secretion compared with pepsin activity” value in the data set on gastric acid secretion [3] is recorded as “significantly greater than on pepsin activity”. Also, the “ED50 for inhibition of gastric erosions” value in [4] (etintidine po 30 min before 1.0 ml 0.75 N HCl, combination also received pepstatin 20 mg/kg po 10 min before HCl, FIG. 2) was determined as 62 mg/kg. Also, the “formation of gastric erosions” value in data set [4] (pretreatment with 17.5, 35, 70 or 140 mg/kg etintidine po) was “decreased the formation of gastric erosions in a dose-related manner”. Further, the “potency relative to cimetidine” value at histamine H2 -receptor is “about twice as potent as cimetidine”.

`CC(C)CC(=O)N[C@H](C(=O)N[C@H](C(=O)N[C@@H](CC(C)C)[C@@H](O)CC(=O)N[C@@H](C)C(=O)N[C@@H](CC(C)C)[C@@H](O)CC(=O)O)C(C)C)C(C)C` [pepstatin] (Isovaleryl-VV[Sta]A[Sta]-OH): the “formation of stomach ulcers” value in [5] is reported as “prevent the formation of stomach ulcers”. The side effects result in data set [6] is “no side effects were observed”. The pepsin activity entry in the data set with pepsin [7] is recorded as “completely inhibited pepsin activity”. In data set [8], the ulcer formation result is recorded as “antagonized ulcer formation”. In the data set with pepsin [9] (setting [15]), the gastric acidity result is reported as “no effect on the gastric acidity” and the gastric peptic activity result is reported as “inhibits gastric peptic activity”. In addition, in the data set with pepsin [9] (ulcer patients, 100 mg doses seven times a day), the “duration of inhibition of peptic activity of gastric juice” value is recorded as 18 hours a day. For the same compound, the “healing or symptomatology of duodenal ulcer versus placebo” value with duodenal ulcer (100 mg seven times a day, double-blind randomized trial, Bonnevie et al. 1979) was “no significant difference between pepstatin and placebo”. Also, in the data set with duodenal ulcer (setting [14]), the “benefit / healing in patients with duodenal ulcer” value is on record as “ineffective”; the “preventing recurrent bleeding in patients admitted with haematemesis and melaena” value is “ineffective”. Also, the “healing or symptomatology of gastric ulcer versus placebo” value with gastric ulcer (100 mg seven times a day, double-blind randomized trial, Svendsen et al. 1979) is “not able to detect any influence of pepstatin”. In addition, the LD50 result in [10] is listed as “exceeded 3000 mg/kg”. The “duration of pepsin suppression” value with pepsin [11] is “about 1 hours”. For the same compound, in [12], the “absorption upon oral administration” value is listed as “essentially unabsorbed; also recorded: only poorly absorbed”. Besides, in data set [12] (animal studies, within 72 hours), the “fraction of compound excreted in the feces” value is on record as “more than 90%”.

Regarding `CN/C(=N/CCSCc1nc[nH]c1C)NC#N` [cimetidine], in the data set with gastric acid secretion [13] (Binder and Donaldson 1978), the “effect on pepsin secretion” value is given as “less marked”. In addition, the “basal and stimulated gastric acid secretion” value in the data set with gastric acid secretion [13] (normal volunteers, Burland et al. 1975) is “antagonize both basal and stimulated gastric acid secretion”; in the data set with gastric acid secretion [13] (patients with duodenal ulcer, Longstreth et al. 1976) it was “antagonize both basal and stimulated gastric acid secretion”. In addition, in the data set with stress ulceration, the ulcer formation result is listed as “significantly decreased ulcer formation”.
